# Test results: US4520031A, “Method for reducing toxic effects of methyl-glyoxal bis-guanylhydrazone” (priority 1982, dated 1985)
# Entries after “also recorded” stand apart in the source; their conditions may differ. Where two headings read alike, the source gives them in different places.
# Legend:
# [1] = parameters: muscle pain and weakness in patient with acute leukemia: dose or concentration left out as unconfirmed
# Procedure: During the course of the clinical experiments, MGBG was administered to patients in approximately weekly doses ranging from 250 to 1000 mg per square meter.
# Pre-treatment minimum evaluation included chest roentgenogram, liver and renal function tests, complete blood count with differential and platelet count and serum glucose. Pre-treatment performance status was recorded for each patient in accordance with SWOG criteria.
# This intravenous infusion is administered to the patient over a period of time not less than 30 minutes. Accordingly, an approximation of the patient's surface area in square meters is calculated using a height and weight to surface area nomogram (listed in Documenta Geigy, Scientific Tables (1970) p. 537) and this factor is applied in determining the appropriate amount of MGBG salt to be added to the infusion solution. […] In the absence of toxicity, subsequent doses of MGBG are increased by 100 mg/m^2 over the previous week's dose. If patients experience moderate or severe reversible toxicity, the dose is reduced by 100 mg/m^2 relative to the previous week's dose. No change in dosage strength is made for mild toxicity.
# [2] = tested on: Pancreas; experiment: Response to weekly MGBG, pancreas; assay type: in vivo, human; conditions: 5 evaluable patients
# [3] = tested on: Head & Neck; experiment: Response to weekly MGBG, head & neck; assay type: in vivo, human; conditions: 2 evaluable patients
# [4] = tested on: Leukemia; experiment: Response to weekly MGBG, leukemia; assay type: in vivo, human; conditions: 1 mg/m^2 weekly for three weeks; 1 evaluable patient
# Procedure: **Patient received 1 mg/m^2 weekly for three weeks
# [5] = tested on: Oat Cell; experiment: Response to weekly MGBG, oat cell; assay type: in vivo, human; conditions: 1 evaluable patient
# [6] = tested on: acute myelocytic leukemia; conditions: cited from earlier work
# [7] = tested on: mitochondrial respiration; conditions: in vitro; cited from earlier work
# [8] = tested on: leukemia-L1210; conditions: Freelander and French; cited from earlier work
# [9] = tested on: adenocarcinoma-755; conditions: Freelander and French; cited from earlier work
# [10] = human subjects undergoing MGBG treatment; cited from earlier work
# [11] = tested on: polyamine synthesis; conditions: in vitro; cited from earlier work
# [12] = some peculiar to certain animal species; cited from earlier work
# [13] = cited from earlier work
# [14] = acute leukemia, iv 150 mg/m^2/day
# [15] = lymphomas and solid tumors, iv 150 mg/m^2/day
smiles,measurement,setting,value
"CC(C=NNC(=N)N)=NNC(=N)N [MGBG, 1,1'-[(methylethanediylidene)dinitrilo] diguanidine]",Number with Toxicity,"[1]; 1 course MGBG, 13 patients",1 patients
same,Number with Toxicity (Approx %),"[1]; 1 course MGBG, 13 patients",8%
same,Number with Toxicity,"[1]; 2 courses MGBG, 25 patients",7 patients
same,Number with Toxicity (Approx %),"[1]; 2 courses MGBG, 25 patients",28%
same,Number with Toxicity,"[1]; 3 courses MGBG, 15 patients",6 patients
same,Number with Toxicity (Approx %),"[1]; 3 courses MGBG, 15 patients",40%
same,"Anemia, Hemoglobin 5.0-6.9 g/100 ml",[1]; 90 patients,2 patients
same,"Anemia, Hemoglobin 7.0-8.9 g/100 ml",[1]; 90 patients,1 patients
same,"Diarrhea: 3-4 stools/day, no dehydration",[1]; 90 patients,1 patients
same,"Diarrhea: 4 liquid stools/day, IV hydration required",[1]; 90 patients,1 patients
same,Granulocytes: <1000/mm^3,[1]; 90 patients,3 patients
same,vomiting ≤6 times/day,[1]; 90 patients,5 patients
same,vomiting ≥7 times/day,[1]; 90 patients,3 patients
same,patients with no toxicity (number),"[1]; 90 patients, 500 mg/m^2 or more each week",67 patients
same,Mucositis: drug-related death,"[1]; 90 patients, patient with hepatoma, one dose at 600 mg/m^2",1 patients
same,muscle pain and weakness in patient with acute leukemia,"[1]; acute leukemia, three weekly doses",One
same,toxicity at 250 mg/m^2 weekly,"[1]; first twelve patients, 250 mg/m^2 weekly",no toxicity
same,Anorexia (Approx. %),"[1]; human, in vivo",8%
same,Anorexia (No. of Patients),"[1]; human, in vivo",7 patients
same,Balanitis (Approx. %),"[1]; human, in vivo",4%
same,Balanitis (No. of Patients),"[1]; human, in vivo",4 patients
same,Diarrhea (Approx. %),"[1]; human, in vivo",3%
same,Diarrhea (No. of Patients),"[1]; human, in vivo",3 patients
same,Granulocytes: <1500 mm^3,"[1]; human, in vivo",2 patients
same,Hematologic (Approx. %),"[1]; human, in vivo",11%
same,Hematologic (No. of Patients),"[1]; human, in vivo",10 patients
same,Mucositis: erythema,"[1]; human, in vivo",3 patients
same,"Mucositis: ulcers, able to eat","[1]; human, in vivo",7 patients
same,"Mucositis: ulcers, unable to eat","[1]; human, in vivo",6 patients
same,Myelosuppression (number),"[1]; human, in vivo",7 patients
same,Myelosuppression (percent),"[1]; human, in vivo",8%
same,Myopathy (Approx. %),"[1]; human, in vivo",3%
same,Myopathy (No. of Patients),"[1]; human, in vivo",3 patients
same,Nausea and vomiting (Approx. %),"[1]; human, in vivo",16%
same,Nausea and vomiting (No. of Patients),"[1]; human, in vivo",14 patients
same,Platelets: 25 × 10^3 -50 × 10^3 /mm^3,"[1]; human, in vivo",2 patients
same,Skin rash (Approx. %),"[1]; human, in vivo",2%
same,Skin rash (No. of Patients),"[1]; human, in vivo",2 patients
same,Urethritis (Approx. %),"[1]; human, in vivo",3%
same,Urethritis (No. of Patients),"[1]; human, in vivo",3 patients
same,Vasculitis (Approx. %),"[1]; human, in vivo",2%
same,Vasculitis (No. of Patients),"[1]; human, in vivo",2 patients
same,anemia (number),"[1]; human, in vivo",3 patients
same,anemia (percent),"[1]; human, in vivo",3%
same,bloody diarrhea,"[1]; human, in vivo",1 patients
same,hospitalization secondary to vomiting,"[1]; human, in vivo",1 patients
same,"nausea, no vomiting","[1]; human, in vivo",5 patients
same,severe muscle pain and weakness of the lower extremities,"[1]; human, in vivo",three
same,cumulative toxicity,[1]; increasing numbers of courses,toxicity appeared to be cumulative
same,reversibility of muscle pain and weakness,[1]; three patients,reversible with drug withdrawal
same,creatinine phosphokinase and aldolase,[1]; three patients with muscle pain and weakness,normal
same,Number with Toxicity,"[1]; ≥4 courses MGBG, 56 patients",28 patients
same,Number with Toxicity (Approx %),"[1]; ≥4 courses MGBG, 56 patients",50%
same,CR + PR,[2],2
same,No Response,[2],3
same,PR (Partial response),[2],2
same,No Response,[3],2
same,IMP (Improvement noted),[4],1
same,IMP (Improvement noted),[5],1
same,remission rate (complete remissions),"[6]; average daily parenteral dose of 126 to 160 mg/m^2, Levin et al.",45%
same,activity in acute myelocytic leukemia,[6]; daily dosing schedule,major activity
same,median increase in survival,"[6]; from 2.5 months, compared to patients with myeloblastic leukemia treated with 6-mercaptopurine",6.5 months
same,concentration with complete inhibition of mitochondrial respiration,[7],≥ 30000 ng/mL
same,antitumor activity,[8],growth inhibiting effects; also recorded: antitumor activity
same,antitumor activity,[9],antitumor activity
same,toxic effects unique to man,[10],"esophagitis, ulcerative pharyngitis, laryngitis, stomatitis, genital mucosa swelling, conjunctivitis, mucositis, erythema, edema, desquamating dermatitis, and profound anorexia with associated weight loss; also recorded: mucositis, vasculitis, and profound anorexia with associated weight loss"
same,intermediate concentrations acting selectively on all polyamine synthesis,[11],0.6 to 2.4 µg/mL
same,toxicological effects observed,[12],"gastrointestinal toxicity, delayed and fatal hypoglycemia, hepatic and renal damage, bone marrow depression, diarrhea and phlebitis"
same,Leukopenia <3000/mm^3 or <50% of initial value,[13]; [14],16 patients
same,"Leukopenia <3000/mm^3 or <50% of initial value, severe toxicity which contributed to death",[13]; [14],1 patients
same,response to MGBG,"[13]; intravenous 150 mg/m^2/day, Regelson and Holland",seen only in the presence of significant toxicity which seriously compromised any clinical improvement
same,"""Myositis""","[13]; iv 150 mg/m^2/day, 46 patients",5 patients
same,Cutaneous lesions,"[13]; iv 150 mg/m^2/day, 46 patients",12 patients
same,Diarrhea,"[13]; iv 150 mg/m^2/day, 46 patients",32 patients
same,"Diarrhea, severe toxicity which contributed to death","[13]; iv 150 mg/m^2/day, 46 patients",1 patients
same,Oropharyngeal and/or esophageal toxicity,"[13]; iv 150 mg/m^2/day, 63 courses in 46 patients",43 patients
same,Hypoglycemia <60 mg %,[13]; iv 150 mg/m^2/day,4 patients
same,"Hypoglycemia <60 mg %, severe toxicity which contributed to death",[13]; iv 150 mg/m^2/day,2 patients
same,Laryngitis,[13]; iv 150 mg/m^2/day,14 patients
same,"Laryngitis, severe toxicity which contributed to death",[13]; iv 150 mg/m^2/day,1 patients
same,Proctitis,[13]; iv 150 mg/m^2/day,2 patients
same,Vulvovaginitis,[13]; iv 150 mg/m^2/day,4 patients
same,Leukopenia <3000 mm^3,[13]; [15],5 patients
same,"Leukopenia <3000 mm^3, severe toxicity which contributed to death",[13]; [15],1 patients
same,"Thrombocytopenia <75,000/mm^3",[13]; [15],3 patients
same,deaths to which severe toxicity contributed,[13]; of 27 patients who died while on study,6 patients
